According to US20250003877A1, “Silyl Bridged Dyes” (priority 2021, published 2025):
Where two headings read alike, the source gives them in different places.

Details: for brighter than dimethylsilyl counterpart: vs 001 (for 002, 009) or vs 016 (for 017)
[1] = spirolactone dyes, table title says PBS, text (b560-b564) says maximal ε when ring-opened in EtOH/0.1% TFA
[2] = spirolactone dyes, ϕ in PBS × ε in EtOH/0.1% TFA

SMILES | Brightness (ϕ × ε) (PBS) | Em (nm) (PBS) | Ex (nm) (PBS) | ε (M^−1 cm^−1) (PBS) | ϕ (quantum yield) (PBS, pH 7.4) | also measured
Cc1ccccc1C1=c2cc3c(cc2[Si](c2ccccc2)(c2ccccc2)c2cc4c(cc21)CCCN4C)=[N+](C)CCC3 [Compound 018, 1,11-Dimethyl-13,13-diphenyl-6-(o-tolyl)-2,3,4,8,9,10,11,13-octahydrosilino[3,2-g:5,6-g′]diquinolin-1-ium] | 41,524 | 710 | 690 | 148,300 M^−1 cm^−1 | 0.28 | –
Cc1ccccc1C1=c2cc3c(cc2[Si](C)(CCCCl)c2cc4c(cc21)CCCN4C)=[N+](C)CCC3 (stereo not shown) [Compound 019, 13-(3-Chloropropyl)-1,11,13-trimethyl-6-(o-tolyl)-2,3,4,8,9,10,11,13-octahydrosilino[3,2-g:5,6-g′]diquinolin-1-ium] | 41,250 | 694 | 677 | 125,000 M^−1 cm^−1 | 0.33 | –
CC[Si]1(CC)C2=CC(=[N+](C)C)C=CC2=C(c2ccccc2C)c2ccc(N(C)C)cc21 [Compound 002, N-(7-(Dimethylamino)-5,5-diethyl-10-(o-tolyl)dibenzo[b,e]silin-3(5H)-ylidene)-N-methylmethanaminium] | 58,540 | 664 | 648 | 164,900 M^−1 cm^−1 | 0.36 | brighter than dimethylsilyl counterpart (PBS): 30%
C=C[Si]1(C=C)C2=CC(=[N+]3CCC3)C=CC2=C(c2ccccc2C)c2ccc(N3CCC3)cc21 [Compound 026, 1-(7-(Azetidin-1-yl)-10-(o-tolyl)-5,5-divinyldibenzo[b,e]silin-3(5H)-ylidene)azetidin-1-ium] | 48,268 | 673 | 658 | 109,700 M^−1 cm^−1 | 0.44 | –
Cc1ccccc1C1=C2C=CC(=[N+](C)C)C=C2[Si]2(CCCCC2)c2cc(N(C)C)ccc21 [Compound 014, N-(7-(Dimethylamino)-10-(o-tolyl)-3H-spiro[dibenzo[b,e]siline-5,1′-silinan]-3-ylidene)-N-methylmethanaminium] | 56,610 | 666 | 650 | 170,000 M^−1 cm^−1 | 0.33 | –
C=C[Si]1(C=C)c2cc3c(cc2C(c2ccccc2C)=c2cc4c(cc21)=[N+](C)CC4)CCN3C [Compound 021, 1,9-Dimethyl-5-(o-tolyl)-11,11-divinyl-2,3,7,8,9,11-hexahydrosilino[3,2-f:5,6-f]diindol-1-ium] | 17,693 | 728 | 702 | 136,100 M^−1 cm^−1 | 0.13 | –
COc1cccc(OC)c1C1=C2C=CC(=[N+](C)C)C=C2[Si](C)(CCCCl)c2cc(N(C)C)ccc21 (stereo not shown) [Compound 030, N-(5-(3-Chloropropyl)-10-(2,6-dimethoxyphenyl)-7-(dimethylamino)-5-methyldibenzo[b,e]silin-3(5H)-ylidene)-N-methylmethanaminium] | 76,000 | 673 | 655 | 200,000 M^−1 cm^−1 | 0.38 | –
C=C[Si]1(C=C)c2cc3c(cc2C(c2ccccc2C)=c2cc4c(cc21)=[N+](C)CCC4)CCCN3C [Compound 017, 1,11-Dimethyl-6-(o-tolyl)-13,13-divinyl-2,3,4,8,9,10,11,13-octahydrosilino[3,2-g:5,6-g′]diquinolin-1-ium] | 75,104 | 702 | 683 | 234,700 M^−1 cm^−1 | 0.32 | brighter than dimethylsilyl counterpart (PBS): 60%
Cc1ccccc1C1=C2C=CC(=[N+](C)C)C=C2[Si](C)(CCC(F)(F)F)c2cc(N(C)C)ccc21 (stereo not shown) [Compound 010, N-(7-(Dimethylamino)-5-methyl-10-(o-tolyl)-5-(3,3,3-trifluoropropyl)dibenzo[b,e]silin-3(5H)-ylidene)-N-methylmethanaminium] | 39,854 | 666 | 650 | 112,900 M^−1 cm^−1 | 0.35 | –
CN(C)c1ccc2c(c1)[Si@](C)(CCCCl)c1cc(N(C)C)ccc1[C@@]21OC(=O)c2ccccc21 [Compound 038, (5r,10r)-5-(3-Chloropropyl)-3,7-bis(dimethylamino)-5-methyl-3′H,5H-spiro[dibenzo[b,e]siline-10,1′-isobenzofuran]-3′-one] | – | 665 | 650 | – | 0.40 | extinction coefficient (maximum) in EtOH/0.1% TFA: ~200,000 M−1 cm−1; ε (M^−1 cm^−1) [1]: 200,000 M^−1 cm^−1; Brightness (ϕ × ε) [2]: 80,000; overall brightness (ϕ in PBS × ε in EtOH/0.1% TFA): ~80,000 M−1 cm−1
CCCCCCCC[Si]1(CCCCCCCC)C2=CC(=[N+](C)C)C=CC2=C(c2ccccc2C)c2ccc(N(C)C)cc21 [Compound 011, N-(7-(Dimethylamino)-5,5-dioctyl-10-(o-tolyl)dibenzo[b,e]silin-3(5H)-ylidene)-N-methylmethanaminium] | – | 666 | 651 | low extinction coefficient | 0.18 | Brightness (ϕ × ε) (EtOH): 89,091; fluorescence and scatter (EtOH): bright fluorescence and no scatter peak; ε (M^−1 cm^−1) (EtOH): 156,300 M^−1 cm^−1; ϕ (quantum yield) (EtOH): 0.57; Rayleigh scatter (PBS, 1 μM concentration): pronounced Rayleigh scatter peak
CN(C)c1ccc2c(c1)[Si@](C)(CCCCl)c1cc(N(C)C)ccc1[C@]21OC(=O)c2ccccc21 [Compound 037, (5s,10s)-5-(3-Chloropropyl)-3,7-bis(dimethylamino)-5-methyl-3′H,5H-spiro[dibenzo[b,e]siline-10,1′-isobenzofuran]-3′-one] | – | 665 | 650 | – | 0.40 | extinction coefficient (maximum) in EtOH/0.1% TFA: ~200,000 M−1 cm−1; ε (M^−1 cm^−1) [1]: 200,000 M^−1 cm^−1; Brightness (ϕ × ε) [2]: 80,000; overall brightness (ϕ in PBS × ε in EtOH/0.1% TFA): ~80,000 M−1 cm−1
CN(C)c1ccc2c(c1)[Si@](C)(CCCI)c1cc(N(C)C)ccc1[C@]21OC(=O)c2ccccc21 [Compound 047, (5s,10s)-3,7-Bis(dimethylamino)-5-(3-iodopropyl)-5-methyl-3′H,5H-spiro[dibenzo[b,e]siline-10,1′-isobenzofuran]-3′-one] | – | 665 | 645 | – | 0.43 | ε (M^−1 cm^−1) [1]: 115,000 M^−1 cm^−1
Cc1ccccc1C1=C2C=CC(=[N+](C)C)C=C2[Si](C)(CCCCl)c2cc(N(C)C)ccc21 (stereo not shown) [Compound 009, N-(5-(3-Chloropropyl)-7-(dimethylamino)-5-methyl-10-(o-tolyl)dibenzo[b,e]silin-3(5H)-ylidene)-N-methylmethanaminium] | 64,113 | 665 | 650 | 180,600 M^−1 cm^−1 | 0.36 | brighter than dimethylsilyl counterpart (PBS): 50%
O=C1OC2(c3ccccc31)c1ccc(N3CCC3)cc1[Si](c1ccccc1)(c1ccccc1)c1cc(N3CCC3)ccc12 [Compound 033, 3,7-Di(azetidin-1-yl)-5,5-diphenyl-3′H,5H-spiro[dibenzo[b,e]siline-10,1′-isobenzofuran]-3′-one] | – | – | – | – | – | extinction coefficient (maximum) in EtOH/0.1% TFA: 80,000 M−1 cm−1; Em (nm) (SDS): 681 nm; Ex (nm) (SDS): 664 nm; extinction coefficient in anhydrous EtOH/0.1% TFA (anhydrous EtOH/0.1% TFA): ~124 000 M−1 cm-1; ε (M^−1 cm^−1) [1]: 80,000 M^−1 cm^−1
CCOC(=O)CSCCC[Si@]1(C)c2cc(N(C)C)ccc2[C@@]2(OC(=O)c3ccccc32)c2ccc(N(C)C)cc21 [Compound 043, Ethyl 2-((3-((5r,10r)-3,7-bis(dimethylamino)-5-methyl-3′-oxo-3′H,5H-spiro[dibenzo[b,e]siline-10,1′-isobenzofuran]-5-yl)propyl)thio)acetate] | – | 665 | 646 | – | 0.45 | ε (M^−1 cm^−1) [1]: 150,700 M^−1 cm^−1
Cc1ccccc1C1=C2C=CC(=[N+](C)C)C=C2[Si](C)(c2ccccc2)c2cc(N(C)C)ccc21 (stereo not shown) [Compound 004, N-(7-(Dimethylamino)-5-methyl-5-phenyl-10-(o-tolyl)dibenzo[b,e]silin-3(5H)-ylidene)-N-methylmethanaminium] | 34,203 | 670 | 657 | 99,140 M^−1 cm^−1 | 0.35 | –
C=C[Si]1(C=C)C2=CC(=[N+](C)C)C=CC2=C(c2ccccc2C)c2ccc(N(C)C)cc21 [Compound 006, N-(7-(Dimethylamino)-10-(o-tolyl)-5,5-divinyldibenzo[b,e]silin-3(5H)-ylidene)-N-methylmethanaminium] | 56,671 | 672 | 657 | 158,300 M^−1 cm^−1 | 0.36 | –
C=C[Si]1(c2ccccc2)C2=CC(=[N+](C)C)C=CC2=C(c2ccccc2C)c2ccc(N(C)C)cc21 (stereo not shown) [Compound 005, N-(7-(Dimethylamino)-5-phenyl-10-(o-tolyl)-5-vinyldibenzo[b,e]silin-3(5H)-ylidene)-N-methylmethanaminium] | 53,499 | 676 | 658 | 150,700 M^−1 cm^−1 | 0.36 | –
Cc1ccccc1C1=c2cc3c(cc2[Si](C)(CCCCl)c2cc4c(cc21)CCN4C)=[N+](C)CC3 (stereo not shown) [Compound 023, 11-(3-Chloropropyl)-1,9,11-trimethyl-5-(o-tolyl)-2,3,7,8,9,11-hexahydrosilino[3,2-f:5,6-f]diindol-1-ium] | 21,947 | 717 | 693 | 129,100 M^−1 cm^−1 | 0.17 | –
